Results published in US6388174B1, “Gene encoding α-subunit of rice anthranilate synthase and DNA relating thereto” (Hokko Chemical Industry Co., Ltd., priority 1997, dated 2002).

Assays:
rice callus cells [1] = experiment: Selection of transformed rice callus cells and plants, Agrobacterium method (vector pUb-OSASA1D); type: cell-based, rice (variety: Nihonbare)
Description: Preparation of Agrobacterium bacterium was carried out in the same manner as in Example 3(4) using the recombinant vector pUb-OSASA1D mentioned in the above (1). Preparation of rice callus cells was carried out in the same manner as in Example 3(5). And, gene introduction into the rice callus cells was carried out in the same manner as in Example 3(6).
The obtained calli as transformed with the recombinant vector were washed with sterilized water containing 500 mg/l carbenicillin, to remove the Agrobacterium bacterium. After removal of excess water, the calli (20 calli per petri dish, 500 calli in total) were transplanted to a solid medium as prepared by adding 30 g/l sucrose, 2 mg/l 2,4-PA, 500 mg/l carbenicillin, 2 g/l Gerite and 3×10^−4 M 5MT as a selective drug, to the inorganic salt composition of N6 medium. […]
(§1) After one month of cultivation, the number of the transformed calli thus selected was counted. […]
The transformed calli as selected by the above cultivation in view of their 5MT resistance were transplanted to a solid regeneration medium which was prepared by adding 30 g/l sucrose, 30 g/l sorbitol, 2 g/l casamino acid, 1 mg/l NAA, 2 mg/l BA, 4 g/l Gel lite and3×10^−4M 5MT to the inorganic salt composition of MS medium. […] The number of the transformed plants regenerated from the transformed calluses was counted. […]

rice callus cells [2] = experiment: Selection of transformed rice callus cells and plants, direct introduction using whiskers (vector pUBdD); type: cell-based, rice (variety: Nihonbare)
Description: Ripe seeds of rice (variety: Nihonbare) were hulled, and the resulting seeds with coats were sterilized by immersion in a 70% ethanol solution for 60 seconds and then in a sodium hypochlorite solution containing about 1% effective chlorine for 6 minutes, followed by washing with sterilized water.
The thus sterilized rice seeds were placed on a medium as prepared by adding 30 g/l sucrose, 2 mg/l 2,4-PA as a phytohormone and 8 g/l agar to the inorganic component composition of MS medium. Incubation of seeds was carried out at 28° C. for 45 days with irradiation with light at 2000 lx for 16 hours per day, to form callus. The formed calli were cut from the albumen of the seeds, and those calli having a size of 1 mm or less were obtained in an amount of 3 ml in term of PCV (Packed Cell Volume), with using a stainless steel sieve (mesh size: 1 mm).
Separately, […] of potassium titanate whiskers (LS20, Titan Kogyo K.K.) was put into a 1.5-ml tube, and 0.5 ml of ethanol was added thereto. The mixture was allowed to stand overnight, and ethanol was evaporated completely to obtain sterilized whiskers. To this tube containing the whiskers was added 1 ml of sterilized water, followed by sufficient stirring. […]
as §1

[3] = 30 days on regeneration medium with selective drug (3×10^−4 M 5MT, or 50 mg/l hygromycin in control group)

Compound: Cc1ccc2[nH]cc(C[C@H](N)C(=O)O)c2c1 [Test Group, 5-methyltryptophan]
- Transformed Callus Cells Selected (rice callus cells [1]; 500 calli tested, one month on selective medium (3×10^−4 M 5MT, or 50 mg/l hygromycin in control group)): 45
- Transformed Plants Selected (rice callus cells [1]; [3]): 43
- Transformed Callus Cells Selected (rice callus cells [2]; 2000 divided cells tested, one month on selective medium (10^−4 M 5MT, or 50 mg/l hygromycin in control group)): 102
- Transformed Plants Selected (rice callus cells [2]; [3]): 85
